Results: patent US8710017B2, “Human and mouse targeting peptides identified by phage display” (priority 2000, dated 2014)
Peptide text beside a SMILES is read from it.

What was measured:
[1] = tested on: chicken chorioallantoic membrane (CAM); test: CAM assay for angiogenesis; assay type: in vivo
Description: In vivo angiogenesis was evaluated by a CAM assay (Ribatti et al., 1994). Fertilized eggs from White Leghorn chickens were maintained in constant humidity at 37° C. On the third day of incubation, a square window was opened in the eggshell and 2-3 ml of albumen was removed to detach the developing CAM from the shell. The window was sealed with a glass plate of the same size and the eggs were returned to the incubator. At day 8, 1 mm^3 sterilized gelatin sponges (Gelfoam, Upjohn Co, Kalamazoo, Milan) were adsorbed with VEGF-A (20 ng, R&D System) and either […] (SEQ ID NO:123) or control […] (SEQ ID NO:124) peptide (1 mM) in 3 μl PBS and implanted on the top of the growing CAMs under sterile conditions. CAMs were examined daily until day 12 and photographed in ovo with a Leica stereomicroscope. Capillaries emerging from the sponge were counted. The assay was repeated twice.

APA (SK-RC-49/APA cells) = molecular target: T1, APA (SK-RC-49/APA cells) (Homo sapiens, UniProt Q07075); test: Phage binding specificity assay on SK-RC-49/APA cells; assay type: cell-based; conditions: soluble peptide in binding medium, not shown
T1 construct: The renal carcinoma cell line SK-RC-49 was transfected with an expression vector encoding full-length APA cDNA; expressed in transfected cells; host or cells: SK-RC-49 renal carcinoma cells, stably transfected (G418)
T1 sequence (Q07075 whole entry): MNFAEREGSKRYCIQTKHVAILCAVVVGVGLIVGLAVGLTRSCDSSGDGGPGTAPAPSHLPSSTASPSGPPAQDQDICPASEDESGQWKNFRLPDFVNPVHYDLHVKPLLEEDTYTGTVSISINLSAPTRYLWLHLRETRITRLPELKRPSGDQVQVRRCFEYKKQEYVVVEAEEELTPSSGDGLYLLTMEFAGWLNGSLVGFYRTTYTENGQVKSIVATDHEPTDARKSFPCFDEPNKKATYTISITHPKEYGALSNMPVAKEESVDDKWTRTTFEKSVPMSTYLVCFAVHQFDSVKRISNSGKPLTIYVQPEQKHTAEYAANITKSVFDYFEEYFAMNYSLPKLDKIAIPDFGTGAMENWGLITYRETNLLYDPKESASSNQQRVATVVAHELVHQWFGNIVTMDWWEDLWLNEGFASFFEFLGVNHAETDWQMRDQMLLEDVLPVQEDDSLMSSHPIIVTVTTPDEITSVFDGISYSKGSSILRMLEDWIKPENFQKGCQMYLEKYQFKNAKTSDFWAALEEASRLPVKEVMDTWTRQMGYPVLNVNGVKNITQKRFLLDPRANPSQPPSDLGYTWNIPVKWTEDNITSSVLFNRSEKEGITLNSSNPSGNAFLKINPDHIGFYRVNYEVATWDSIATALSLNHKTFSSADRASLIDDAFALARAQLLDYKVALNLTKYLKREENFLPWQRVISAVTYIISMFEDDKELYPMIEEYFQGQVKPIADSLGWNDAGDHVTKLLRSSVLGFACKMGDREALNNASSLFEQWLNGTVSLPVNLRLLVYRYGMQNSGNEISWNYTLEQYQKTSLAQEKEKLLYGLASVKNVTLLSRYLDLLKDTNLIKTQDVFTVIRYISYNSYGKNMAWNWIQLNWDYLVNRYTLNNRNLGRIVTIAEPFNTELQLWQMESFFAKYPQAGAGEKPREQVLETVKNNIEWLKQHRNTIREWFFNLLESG
Description: The cell binding assay was performed with an input of 10^9 TU as described for the cell panning. The specificity was confirmed by adding […] (SEQ ID NO:123) peptide to the binding medium in increasing concentrations. For phage binding on immunocaptured APA, wells were blocked for 1 h at room temperature with PBS/3% BSA and incubated with 10^9 TU for 1 h at room temperature in 50 μl PBS/3% BSA. After eight washes in PBS/1% BSA/0.01% Tween-20 and two washes in PBS, phage were rescued by adding 200 μl of exponentially growing K91Kan E. coli. Each experiment was repeated at least three times.

[2] = molecular target: T2, Aminopeptidase A (APA, EC 3.4.11.7) (Homo sapiens, UniProt Q07075); test: APA enzyme assay (α-glutamyl-p-nitroanilide, SK-RC-49/APA cells); assay type: biochemical; conditions: highest concentration tested
T2 construct: The renal carcinoma cell line SK-RC-49 was transfected with an expression vector encoding full-length APA cDNA; expressed in transfected cells; host or cells: SK-RC-49 renal carcinoma cells, stably transfected (G418)
T2 sequence (Q07075 whole entry): as above

HUVECs [3] = test: HUVEC chemotaxis assay (Boyden chamber, VEGF-A); assay type: cell-based, human
Description: FIG. 24. […] (SEQ ID NO:123) inhibits HUVEC migration. HUVECs were stimulated with VEGF-A (10 ng/ml). The assay was performed in a Boyden microchemotaxis chamber, and cells were allowed to migrate through an 8-μm pore filter for 5 h at 37° C. […] (SEQ ID NO:124) (control) and […] (SEQ ID NO:123) peptides were tested at 1 mM concentration. Migrated cells were stained and five high-power fields (magnitude 100×) for each microwell were counted. Error bars are the standard error of the means of triplicate microwells.
A cell migration assay was performed in a 48-well microchemotaxis chamber (NeuroProbe, Gaithersburg, Md.) according to Bussolini et al. (1995). Polyvinylpyrrolidone-free polycarbonate filters (Nucleopore, Cambridge, Mass.) with 8-μm pores were coated with 1% gelatin for 10 min at room temperature and equilibrated in M199 medium supplemented with 2% FCS. […] (SEQ ID NO:123) or control […] (SEQ ID NO:124) peptide (1 mM) was placed in the lower compartment of a Boyden chamber in M199 medium supplemented with 2% FCS and 10 ng/ml VEGF-A (R&D System). Subconfluent cultures that had been starved overnight were harvested in PBS containing 2.5 mM EDTA, washed once in PBS, and resuspended in M199 medium containing 2% FCS at a final concentration of 2×10^6 cells/ml. After the filter was placed between the lower and upper chambers, 50 μl of the cell suspension was seeded in the upper compartment, and cells were allowed to migrate for 5 h at 37° C. in a humidified atmosphere with 5% CO2. The filter was then removed, and cells on the upper side were scraped with a rubber policeman. Migrated cells were fixed in methanol and stained with Giemsa solution (Diff-Quick, Baxter Diagnostics, Rome, Italy). Five random high-power fields (magnitude 100×) were counted in each well. Each assay was run in triplicate.

HUVECs [4] = test: HUVEC cell growth assay (crystal violet, VEGF-A); assay type: cell-based, human
Description: FIG. 25. […] (SEQ ID NO:123) inhibits HUVEC proliferation. Cells were stimulated with VEGF-A (10 ng/ml), and growth was evaluated at the indicated times by a colorimetric assay based on crystal violet staining. Error bars are the standard error of the means of triplicate wells. Each experiment was repeated at least twice with similar results.
HUVECs were seeded in 48-well plates (10^4 cells/well) and allowed to attach for 24 h in complete M199 medium. The cells were then starved in M199 medium containing 2% FCS for 24 h. […] (SEQ ID NO:123) or control […] (SEQ ID NO:124) peptide (1 mM) was added to the wells in medium containing 2% FCS and 10 ng/ml VEGF-A (R&D System, Abingdom, UK). After incubation for the indicated times, cells were fixed in 2.5% glutaraldehyde, stained with 0.1% crystal violet in 20% methanol, and solubilized in 10% acetic acid. All treatments were done in triplicate. Cell growth was evaluated by measuring the O.D. at 590 nm in a microplate reader (Biorad, Hercules, Calif.). A calibration curve was established and a linear correlation between O.D. and cell counts was observed between 10^3 and 10^5 cells.

HUVECs [5] = test: Three-dimensional Matrigel culture of HUVECs (capillary-like network); assay type: cell-based, human; conditions: not shown
Description: Matrigel (Collaborative Research, Bedford, Mass.) was added at 100 μl per well to 48-well tissue culture plates and allowed to solidify for 10 min at 37° C. HUVECs were starved for 24 h in M199 medium supplemented with 2% FCS before being harvested in PBS containing 2.5 mM EDTA. 10^4 cells were gently added to each of the triplicate wells and allowed to adhere to the gel coating for 30 min at 37° C. Then, medium was replaced with indicated concentrations of […] (SEQ ID NO:123) or […] (SEQ ID NO:124) peptides in complete medium. The plates were photographed after 24 h with an inverted microscope (Canon). The assay was repeated three times.

[6] = molecular target: T3, β3 integrin cytoplasmic domain (Homo sapiens, UniProt P05106); test: Binding of Fyn-phosphorylated phage to β3 cytoplasmic domain; conditions: phage phosphorylated by Fyn versus unphosphorylated phage
T3 construct: recombinant fusion proteins containing β3 or β5 cytoplasmic domains
T3 sequence (P05106 742-788 limits assumed): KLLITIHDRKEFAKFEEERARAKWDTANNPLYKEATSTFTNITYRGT
Description: Phosphorylation of peptide libraries with src family protein kinases (Fyn, c-Src, Lyn, and Syc) and serine/threonine kinases such as a MAP kinase were performed as described previously (Schmitz et al., 1996; Dente et al., 1997; Gram et al., 1997). Briefly, phage particles were collected from culture supernatants by double precipitation with 20% polyethylene glycol 8000 in 2.5 M NaCl. Particles were dissolved at 10^12 particles/ml. Purified phage (10 μl) were incubated for 3 hours at room temperature with different concentrations (35 to 3,500 units) of protein kinases in a reaction buffer volume of 50 μl. The reaction mixtures were transferred to tubes containing 10 μg of agarose-conjugated anti-P-Tyr, anti-P-Ser, or anti-P-Thr monoclonal antibodies to select phage displaying phosphorylated peptides. […] Phosphorylated peptides binding to β3 and β5 cytoplasmic domains were analyzed as described in the previous section.
Randomly selected clones from rounds III and IV were sequenced from a X4YX4 phosphorylated library with Fyn. […] The ratio of binding to β3 or β5 was calculated by dividing the number of β3 or β5 colonies by GST or BSA colonies found after panning. The ratio of binding to β3 or β5 with phosphorylated phage by Fyn versus unphosphorylated phage was calculated by dividing the number of colonies found after the panning. […]

[7] = lower concentrations, not shown

Phos/Unphos [6]	Molecule	inhibition of VEGF-A-induced neovascularization (number of capillaries emerging from the sponge) ([1]; 1 mM, VEGF-A 20 ng, day 12)	effect on the number of growing vessels ([1]; lower peptide concentrations, not shown)	competition with CPKVCPRECESNC phage for binding to SK-RC-49/APA cells (APA (SK-RC-49/APA cells))	reduction of APA enzyme activity [2]	inhibition of chemotaxis of HUVECs (HUVECs [3]; 1 mM, VEGF-A 10 ng/ml, 5 h, FIG. 24)	effect on cell migration (HUVECs [3]; [7])	inhibition of HUVEC proliferation (HUVECs [4]; 1 mM, VEGF-A 10 ng/ml, FIG. 25)	effect on cell proliferation (HUVECs [4]; [7])	HUVEC morphogenesis / capillary-like network (HUVECs [5]; 1 mM, 24 h)	formation of capillary-like network (HUVECs [5]; increasing concentrations)
	CC[C@H](C)[C@H](NC(=O)[C@H](CO)NC(=O)[C@H](CCC(=O)O)NC(=O)[C@H](CS)NC(=O)[C@H](CCC(=O)O)NC(=O)[C@H](CCCNC(=N)N)NC(=O)[C@@H]1CCCN1C(=O)[C@@H](N)CS)C(=O)N[C@@H](CS)C(=O)O (H-CPRECESIC-OH)	40%	no effect	competed	60%	70%	no significant effect	50%	no significant effect	vessel-like branching structures were significantly fewer and shorter	progressive impairment of the formation of this network
2.5	MLLGYRFEK										
